According to ChEMBL document CHEMBL2321724 (J Med Chem, 2013):

How the values were obtained:
[1] = biological target: T1, Voltage-gated inwardly rectifying potassium channel KCNH2 (Homo sapiens, UniProt Q12809); assay: Displacement of [3H]astemizole from human ERG K+ channel expressed in HEK293 cells by scintillation spectrophotometric analysis
hERG (KCNH2) K+ channel [2] = biological target: T2, hERG (KCNH2) K+ channel (Homo sapiens, UniProt Q12809); assay: Displacement of [3H]astemizole from human ERG K+ channel expressed in HEK293 cells at 10 uM by scintillation spectrophotometric analysis
[3] = biological target: T1, Voltage-gated inwardly rectifying potassium channel KCNH2; assay: Inhibition of human ERG K+ channel expressed in HEK293 cells after 15 mins by patch clamp assay; assay type: cell-based
hERG (KCNH2) K+ channel [4] = biological target: T2, hERG (KCNH2) K+ channel; assay: Assay index, ratio of IC50 for human ERG K+ channel expressed in HEK293 cells by patch clamp assay to IC50 for human ERG K+ channel expressed in HEK293 cells by radioligand binding assay; assay type: cell-based; settings: HEK293 cells expressing human ERG K+ channel, read-out: Ratio IC50
[5] = HEK293 cells expressing human ERG K+ channel, probe [3H]astemizole

T1 sequence (Q12809 whole entry): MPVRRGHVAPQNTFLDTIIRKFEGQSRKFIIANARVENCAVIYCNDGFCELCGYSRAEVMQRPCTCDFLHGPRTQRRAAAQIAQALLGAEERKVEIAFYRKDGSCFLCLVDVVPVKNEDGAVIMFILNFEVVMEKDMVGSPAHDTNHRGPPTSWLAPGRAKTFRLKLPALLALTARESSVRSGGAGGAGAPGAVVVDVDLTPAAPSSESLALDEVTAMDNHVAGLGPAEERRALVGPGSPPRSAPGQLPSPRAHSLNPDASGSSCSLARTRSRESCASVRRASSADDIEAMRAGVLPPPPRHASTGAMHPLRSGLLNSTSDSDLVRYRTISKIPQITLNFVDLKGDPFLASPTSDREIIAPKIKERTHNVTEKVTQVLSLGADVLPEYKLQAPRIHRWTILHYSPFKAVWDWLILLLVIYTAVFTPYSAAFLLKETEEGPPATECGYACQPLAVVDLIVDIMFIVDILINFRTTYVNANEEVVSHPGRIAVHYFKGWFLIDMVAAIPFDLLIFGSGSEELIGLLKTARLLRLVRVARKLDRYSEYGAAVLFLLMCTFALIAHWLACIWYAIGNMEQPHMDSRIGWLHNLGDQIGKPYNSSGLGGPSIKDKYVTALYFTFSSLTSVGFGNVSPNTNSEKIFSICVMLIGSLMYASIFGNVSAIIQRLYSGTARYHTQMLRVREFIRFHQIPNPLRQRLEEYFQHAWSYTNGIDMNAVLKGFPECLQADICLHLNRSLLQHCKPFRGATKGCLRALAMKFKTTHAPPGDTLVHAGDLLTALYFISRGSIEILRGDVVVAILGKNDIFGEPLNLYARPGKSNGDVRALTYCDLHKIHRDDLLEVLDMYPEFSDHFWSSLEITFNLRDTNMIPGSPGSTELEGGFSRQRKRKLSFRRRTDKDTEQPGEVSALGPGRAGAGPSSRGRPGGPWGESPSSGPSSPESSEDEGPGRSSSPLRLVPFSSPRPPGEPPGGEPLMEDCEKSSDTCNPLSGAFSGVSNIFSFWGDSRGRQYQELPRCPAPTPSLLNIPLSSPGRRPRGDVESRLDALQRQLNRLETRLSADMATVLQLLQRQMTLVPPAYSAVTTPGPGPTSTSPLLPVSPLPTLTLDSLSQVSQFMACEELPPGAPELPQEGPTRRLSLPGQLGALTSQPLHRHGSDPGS
T2 sequence (Q12809 whole entry): as above

| SMILES | IC50 [1] [nM] | other results |
| --- | --- | --- |
| Cc1ccc(CCc2cccc(CCc3ccc(C)cc3)n2)cc1 | – | IC50 ([1]; human, hek293): > 10000 nM |
| C[n+]1c(C#CCOc2ccccc2Cl)cccc1C#CCOc1ccccc1Cl | – | inhibition at 10 µM (hERG (KCNH2) K+ channel [2]; [5]): 16% |
| C[n+]1c(CCCOc2ccccc2)cccc1CCCOc1ccccc1 | 208 | – |
| c1ccc(OCc2cccc(COc3ccccc3)n2)cc1 | – | inhibition at 10 µM (hERG (KCNH2) K+ channel [2]; hek293): 15% |
| C[n+]1c(COc2ccccc2)cccc1COc1ccccc1 | 767 | – |
| C(#Cc1cccc(C#Cc2ccccc2)n1)c1ccccc1 | – | inhibition at 10 µM (hERG (KCNH2) K+ channel [2]; [5]): -11% |
| c1ccc(CCc2cccc(CCc3ccccc3)n2)cc1 | 1610 | – |
| c1ccc(CCc2cccc(CCc3ccccc3)c2)cc1 | – | inhibition at 10 µM (hERG (KCNH2) K+ channel [2]; [5]): 8% |
| Cc1ccc(OCCCc2cc(N)cc(CCCOc3ccc(C)cc3)n2)cc1 | 170 | IC50 [3]: 146 nM; selectivity ratio (hERG (KCNH2) K+ channel [4]): 0.86 |
| Cc1ccc(Cc2cccc(COc3ccc(C)cc3)n2)cc1 | – | inhibition at 10 µM (hERG (KCNH2) K+ channel [2]; hek293): 9% |
| Cc1ccc(Cc2ccnc(COc3ccc(C)cc3)c2)cc1 | > 10000 | inhibition at 10 µM (hERG (KCNH2) K+ channel [2]; [5]): -3% |
| Cc1ccc(COCc2cccc(COCc3ccc(C)cc3)[n+]2C)cc1 | 107 | – |
| Cc1ccc(CCOCc2cccc(COCCc3ccc(C)cc3)[n+]2C)cc1 | 135 | – |
| Cc1ccc(CCCOCc2cccc(COCCCc3ccc(C)cc3)[n+]2C)cc1 | 24 | IC50 [3]: 194 nM; selectivity ratio (hERG (KCNH2) K+ channel [4]): 8.1 |
| Cc1ccc(C#Cc2cccc(C#Cc3ccc(C)cc3)[n+]2C)cc1 | 285 | – |
| Cc1ccc(OCCCc2cccc(CCCOc3ccc(C)cc3)[n+]2C)cc1 | 86 | IC50 [3]: 962 nM; selectivity ratio (hERG (KCNH2) K+ channel [4]): 11.2 |
| Cc1ccc(CCOCCCc2cccc(CCCOCCc3ccc(C)cc3)[n+]2C)cc1 | 371 | – |
| CCCCCCC#Cc1cccc(C#CCCCCCC)[n+]1C | 1990 | – |
| C[n+]1c(C#Cc2ccc(-c3ccccc3)cc2)cccc1C#Cc1ccc(-c2ccccc2)cc1 | 294 | – |
| C[n+]1c(C#Cc2cccc(Cl)c2)cccc1C#Cc1cccc(Cl)c1 | 4020 | – |
| C[n+]1c(C#Cc2ccccc2Cl)cccc1C#Cc1ccccc1Cl | 3900 | – |
